According to publication PMC9028392, “Oleyl Conjugated Histidine-Arginine Cell-Penetrating Peptides as Promising Agents for siRNA Delivery” (Pharmaceutics, 2022):

Experiments:
STAT-3 = STAT-3 protein silencing by peptide/STAT-3 siRNA complexes (Western blot); assay type: cell-based; conditions: MDA-MB-231, N/P 40, STAT-3 siRNA 50 nM, 48 h; for STAT-3 expression: GAPDH housekeeping
Protocol: STAT-3 is an essential protein overexpressed in several cancer types, including breast cancer. The silencing effect of the STAT-3 siRNA delivered via oleyl conjugated peptides was determined by checking the expression of STAT-3 in peptide-siRNA complex treated cells. Expression of STAT-3 in nontreated cells served as a negative control, whereas the commercially used transfection agent lipofectamine (20 µg/mL) complexed with STAT-3 siRNA (50 nM) served as the positive control. STAT-3 expression was evaluated by the Western blotting experiment. Approximately 500,000 MDA-MB-231 cells were seeded in T-25 flasks and incubated at 37 °C under standard growth conditions. After 24 h, the cells were treated with peptide-siRNA complexes at N/P 40 for 48 h. The final siRNA concentration at this N/P was 50 nM. After 48 h of treatment, MDA-MB-231 cell lysates were prepared according to the standard protocol using RIPA buffer; the cell lysates were then incubated on ice for 1 h, during which the tubes were sonicated for 3 min after every 10 min. Following sonication for 1 h to ensure the complete lysis of cells, the tubes were centrifuged for 15 min at 12,000 rpm (RCF = 13,870× g) at 4 °C. The supernatant from the centrifuged tubes was transferred to a fresh set of pre-cooled microtubes, and the total protein concentration was determined using […]. Briefly, 200 μL of working reagent (50:1 A:B) was added to 25 μL of standard and unknown samples in triplicate into a 96-well plate, and the sample was mixed on a plate shaker for 30 s. The plate was then incubated at 37 °C and 5% CO2 for 30 min. After half an hour of incubation, the absorbance was measured at 562 nm using a Spectra MAX M5 microplate reader. The protein in each treatment sample was quantified using the BSA standard curve. A total of 15 µg of the protein was loaded per well in a 10% Mini-PROTEAN® TGX Stain-Free. Protein gel electrophoresis was performed in buffer (0.192 M glycine, 25 mM Tris, 0.1% SDS) for 30 min at 200 V. The gel was then transferred to Mini PVDF membrane (Catalog no. 1704156) using Trans-Blot® Turbo (Bio-Rad, Hercules, CA, USA). The membrane was blocked in BSA 5% for 3 h and then incubated at 4 °C overnight with the primary antibody (1:1000 in TBS-T). The membrane was then washed with TBS-T six times (5 min each time) and was subsequently incubated with the secondary HRP-linked antibody (1:1000 in TBS-T) for 1 h, followed by the washing steps. The detection of the bands was done by ECL Detect Kit using a ChemiDoc imager (Bio-Rad, Hercules, CA, USA). The bands were quantified using Image Lab™ software of ChemiDoc imager.

[1] = Dynamic light scattering, hydrodynamic diameter and PDI of peptide-siRNA complexes; assay type: physicochemical; conditions: DLS, 25 °C, peptide-siRNA complex at N/P 40, siRNA 50 nM, HBSS, mean of three independent experiments; for Z-Ave (hydrodynamic diameter): Malvern Nano ZS Zetasizer
Excerpt: The complex of oleyl conjugated peptides and siRNA was formed through physical mixing. Appropriate volumes of oleyl conjugated peptides and siRNA solution were mixed in Hank’s balanced salt solution (HBSS) buffer to obtain the complexes. The oleyl conjugated peptide-siRNA complexes were formed due to ionic interaction between positively charged arginine residues of the conjugates and the negatively charged phosphate groups of siRNAs. […] The N to P ratio is commonly used where N represents the number of moles of ionizable nitrogen in the delivery agent. In contrast, P refers to the number of moles of phosphates present in siRNA. The ratio is calculated using the following formula. N/P=number of moles pf peptidex number of ionized nitrogen atoms/(number of moles of siRA ×48)
The peptide-siRNA complexes were characterized using the dynamic light scattering (DLS) technique. Malvern Nano ZS Zetasizer (Westborough, MA, USA) was used to determine the hydrodynamic diameter and surface charge of the complexes at 25 °C. The zeta potential of the complexes was determined at 40 V using disposable folded capillary cells (DTS1070). The calibration of the instrument was performed by transfer standard DTS 1235. The disposable cuvettes were used for determining the hydrodynamic diameter. The N/P ratio 40 was selected for performing the dynamic light scattering experiment. At this N/P ratio, the final concentration of siRNA in the complex was 50 nM whereas the concentration of oleyl-(HR)4 was 24 µM, oleyl-R1-(HR)4 was 19.20 µM, oleyl-R2-(HR)4 was 16 µM, oleyl-R3-(HR)4 was 13.71 µM, oleyl-R4-(HR)4 was 12 µM, and oleyl-R5-(HR)4 was 10.67 µM. The final volume of the complex used for performing zeta potential was 750 µL. The measurements were performed in triplicate, where each measurement consisted of 20 runs. The zeta potential values were calculated using the Smoluchowski model. All the results passed the quality standard of the instrument.
Particle size was also determined at N/P 40 with the same concentrations of siRNA and oleyl conjugated peptides as described above. The experiments were performed in triplicate on each sample with an automatic attenuator setting. The results were checked with the quality standards of the instruments and were represented as mean ± SD of three independent experiments.

MDA-MB-231 cells [2] = test: Cellular uptake of siRNA by confocal microscopy; assay type: cell-based; conditions: MDA-MB-231, fixed cells, N/P 40, siRNA 50 nM, 24 h
Protocol: Confocal microscopy was used to corroborate the data obtained from flow cytometry. There have been reports for using fixed cells or live cells for imaging the cellular uptake of siRNA. We adopted the protocol of Aliabadi et al. to perform the confocal microscopy. Briefly, approximately 400,000 MDA-MB-231 cells were seeded on coverslips in 6-well plates and were allowed to settle for 24 h. After 24 h, the cells were visualized under an ordinary microscope for their health and confluency. Peptide-siRNA complexes at N/P ratio 40 were made containing a final concentration of 50 nM of siRNA, and the cells were treated with these complexes. Nontreated cells served as negative control while lipofectamine-siRNA complexes were used as a positive control. After 24 h of treatment, the cells grown on coverslips were washed 3 times with HBSS and fixed with 3.7% formaldehyde solutions solution for 30 min at room temperature. The […] of the cells were stained with Texas Red (TR) Phalloidin (Invitrogen) (1:250 in HBSS), while the nuclei of the cells were stained with 4′,6-diamidino-2-phenylindole (DAPI). Nikon A1R confocal microscope system was used to image the fixed cells at 60X objective and different filters for Alexa-488 (FITC), DAPI, and TR.

MDA-MB-231 cells [3] = test: Cellular internalization of Alexa Fluor 488-labeled siRNA by flow cytometry; assay type: cell-based; conditions: 24 h; for Increase in cellular uptake of siRNA compared to free siRNA: MDA-MB-231, N/P 40, Alexa-488 siRNA 50 nM, flow cytometry mean fluorescence intensity
Protocol: The cellular uptake of siRNA complexed with oleyl conjugated peptides was evaluated using flow cytometry (BD-FACSVerse; BD Biosciences, San Jose, CA, USA) in live cells. Alexa fluor 488-labeled scrambled siRNA was used for making complexes with oleyl conjugated peptides. The peptide-siRNA complexes were made at N/P 40; the final concentration of siRNA in each complex was 50 nM. The study was performed on MDA-MB-231 according to the protocol described by Mandal et al.. Briefly, approximately 500,000 cells were seeded in each well of the six-well plates and were allowed to settle for 24 h. The cells were treated with the conjugate-siRNA complexes (N/P 40) and were incubated in a humidified atmosphere of 5% CO2 and 95% air at 37 °C for 24 h. After 24 h of treatment, the cells were washed three times with HBBS and were trypsinized. The suspended cells were centrifuged for 5 min at 1000 rpm (96× g) at 4 °C, and the cells pellet was washed with HBSS three times to remove any traces of the medium. Finally, the cells were resuspended in PBS and analyzed by flow cytometer using Alexa-Fluor-488 channel to quantify the mean fluorescence intensity. The mean fluorescent intensity in the treated cells was calculated for each sample based on the calibration of the signal gated with nontreated cells, serving as a negative control. Alexa-488 labeled scrambled siRNA served as a second negative control, and lipofectamine-siRNA treated cells were used as a positive control.

[4] = MDA-MB-231, N/P 40, siRNA 50 nM, flow cytometry, n = 3

| Substance | Reduction (inhibition) in STAT-3 expression (STAT-3) | STAT-3 expression (STAT-3) | PDI (polydispersity index) [1] | Z-Ave (hydrodynamic diameter) [1] [nm·days] | Green fluorescence (Alexa-488 siRNA) in confocal images (MDA-MB-231 cells [2]) | Increase in cellular uptake of siRNA compared to free siRNA (MDA-MB-231 cells [3]) | Mean fluorescent intensity compared with Alexa-488 siRNA treated cells (MDA-MB-231 cells [3]; [4]) | STAT-3 inhibition compared with Lipofectamine 2000 (STAT-3; three independent experiments) | Cellular uptake compared with lipofectamine (MDA-MB-231 cells [3]; [4]) | Cellular uptake of siRNA within the series (MDA-MB-231 cells [3]; [4]) |
| --- | --- | --- | --- | --- | --- | --- | --- | --- | --- | --- |
| Oleyl-RRRR-(HR)4-OH [Oleyl-R4-(HR)4] | ~ 41% | ~ 41% | 0.237 | 115.2 | comparable green fluorescence | ~ 80 fold | – | – | – | – |
| Oleyl-(HR)4-OH | – | – | 0.213 | 120.1 | – | – | nonsignificant difference in intensity | – | – | – |
| Oleyl-RRR-(HR)4-OH [Oleyl-R3-(HR)4] | ~ 55% | ~ 55% | 0.229 | 117 | – | ~ 80 fold | – | – | – | – |
| Oleyl-RR-(HR)4-OH [Oleyl-R2-(HR)4] | ~ 68% | ~ 68% | 0.217 | 115.6 | – | – | – | – | – | – |
| Oleyl-RRRRR-(HR)4-OH [Oleyl-R5-(HR)4, oleyl conjugated peptide with five R residues between oleyl and (HR)4] | ~ 80% | ~ 20% | 0.213 | 115.6 | comparable green fluorescence | – | – | comparable inhibition | nonsignificant difference | maximum cellular uptake |
| Oleyl-R-(HR)4-OH [Oleyl-R1-(HR)4] | – | – | 0.201 | 116.9 | – | – | nonsignificant difference in intensity | – | – | – |
